In patent publication US20220079889A1, “USE OF CANNABANOIDS IN THE TREATMENT OF PROLIFERATIVE DIABETIC RETINOPATHY” (VERDANT PHARMACEUTICALS, LLC, priority 2020, published 2022):
Entries after “also recorded” stand apart in the source; their conditions may differ.

Experiments:
[1] = test system: CNV lesions; assay: Laser injury CNV model, CNV size in choroidal flat mounts; format: in vivo, Brown-Norway rats; conditions: rats
From the text: For reverse transcription polymerase chain reaction (RT-PCR) detection and immunofluorescence staining of CB in the choroid, Lewis rats (8-10 weeks old, Charles River Laboratories, Inc., Wilmington, Mass.) were used. To generate CNV in the laser injury model, Brown-Norway rats (10-12 weeks old, Charles River Laboratories, Inc., Wilmington, Mass.) were used. Rats were housed in plastic cages in a climate controlled animal facility and were fed laboratory chow and water ad libitum. All animal experiments were conducted in accordance with the ARVO Statement for the Use of Animals in Ophthalmic and Vision Research.
Lewis rats were euthanized by overdose anesthesia and perfused with PBS (500 ml/kg body weight (BW)). Eyes were immediately enucleated and the retinal pigment epithelium (RPE)-choroid complex was obtained from the rat eyes and homogenized in extraction reagent (TRIzol Reagent; Invitrogen, Carlsbad, Calif.). […] PCR products were analyzed by electrophoresis in a 1.5% agarose gel and stained with ethidium bromide ([…]). The expected sizes of the amplified cDNA fragments of CB and GAPDH were 341 bp and 387 bp, respectively Band densities were quantified using NIH Image 1.41 software (available by ftp from zippy.nimh.nih.gov/or from the web site, rsb info.nih.gov/nih-image: developed by Wayne Rasband, National Institutes of Health, Bethesda, Md.). […]

[2] = test system: IL-1β-induced corneal lymphangiogenesis; assay: IL-1β-induced corneal lymphangiogenesis (anti-LYVE-1 stain); format: in vivo, BALB/c mice; conditions: 0.3 mg/kg daily i.p.
Procedure: BALB/c mice were anesthetized by intraperitoneal (i.p.) injection of pentobarbital sodium (60 mg/kg). Hydron pellets (0.3 μl) containing 30 ng mouse IL-1β (401-ML, R&D Systems) were prepared and implanted into the corneas. Pellets were positioned 1 mm from the corneal limbus. Implanted eyes were treated with Bacitracin ophthalmic ointment (E. Fougera & Co.) to prevent infection.
To block CB, mice received daily i.p. injections of a specific CBD. Compound II (R-tech Ueno Ltd., Tokyo, Japan) as described above. A daily dose of 0.3 mg/kg was administered at day 0 and continued until the sixth day after implantation. Two, four and six days after implantation, digital images of the corneal vessels were obtained and recorded using OpenLab software version 2.2.5 (Improvision Inc.) with standardized illumination and contrast and were saved onto disks. The quantitative analysis of new vessel growth in the mouse corneas was performed using Scion Image software (version 4.0.2, Scion Corp.).
Eyes were enucleated and fixed with 4% paraformaldehyde for one hour at 4° C. For whole-mount preparation, the corneas were exposed by removing other portions of the eye (i.e iris, sclera, retina, and conjunctiva). […]

CC(=O)Nc1nc(CCc2ccc(NC(=N)NN)cc2)c(Cc2ccc(S(C)(=O)=O)cc2)s1 [Compound II]
effect on CNV / CNV size (in words) [1]: significantly decreased; also recorded: effectively suppresses CNV | effect on corneal lymphangiogenesis (in words) [2]: effectively suppresses corneal lymphangiogenesis
